Measured values published in PubChem BioAssay AID248 (DTP/NCI, 2004).
Several values for one entry are separate records, joined by “and”; a condition that tells them apart may be missing. Identical values can stand only once. Inconclusive results and toxic doses are left out. Cut-off read from the data, not from the text of the source: active = T/C of 150% or more; inactive = T/C below 125%.

Tested on: L1210 leukemia ip in BDF1 mice, survival T/C
Assay: NCI In Vivo Anticancer Drug Screen. Data for tumor model L1210 Leukemia (intraperitoneal) in B6D2F1 (BDF1) mice
Conditions: higher = longer survival
In short: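 Mice bearing the transplanted tumor received compound or vehicle. Survival of the treated group was divided by that of the vehicle-treated control group to give the ratio.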

[1] = endpoint: mean survival time, dose: 100.0 mg/kg/injection, schedule: Q01DX001 (ip), vehicle: saline
[2] = endpoint: mean survival time, dose: 200.0 mg/kg/injection, schedule: Q01DX001 (ip), vehicle: saline
[3] = endpoint: mean survival time, dose: 400.0 mg/kg/injection, schedule: Q01DX001 (ip), vehicle: saline
[4] = endpoint: mean survival time, dose: 100.0 mg/kg/injection, schedule: Q01DX009 (ip), vehicle: Klucel (hydroxypropylcellulose) (HPC)
[5] = endpoint: mean survival time, dose: 200.0 mg/kg/injection, schedule: Q01DX009 (ip), vehicle: Klucel (hydroxypropylcellulose) (HPC)
[6] = endpoint: mean survival time, dose: 400.0 mg/kg/injection, schedule: Q01DX009 (ip), vehicle: Klucel (hydroxypropylcellulose) (HPC)
[7] = endpoint: mean survival time, dose: 100.0 mg/kg/injection, schedule: Q04DX003 (ip), vehicle: Klucel (hydroxypropylcellulose) (HPC)
[8] = endpoint: mean survival time, dose: 200.0 mg/kg/injection, schedule: Q04DX003 (ip), vehicle: Klucel (hydroxypropylcellulose) (HPC)
[9] = endpoint: mean survival time, dose: 400.0 mg/kg/injection, schedule: Q04DX003 (ip), vehicle: Klucel (hydroxypropylcellulose) (HPC)
[10] = endpoint: mean survival time, dose: 25.0 mg/kg/injection, schedule: Q01DX009 (ip), vehicle: saline with Tween-80
[11] = endpoint: mean survival time, dose: 50.0 mg/kg/injection, schedule: Q01DX009 (ip), vehicle: saline with Tween-80
[12] = endpoint: mean survival time, dose: 100.0 mg/kg/injection, schedule: Q04DX003 (ip), vehicle: saline
[13] = endpoint: mean survival time, dose: 200.0 mg/kg/injection, schedule: Q04DX003 (ip), vehicle: saline
[14] = endpoint: mean survival time, dose: 400.0 mg/kg/injection, schedule: Q04DX003 (ip), vehicle: saline
[15] = endpoint: mean survival time, dose: 100.0 mg/kg/injection, schedule: Q01DX009 (ip), vehicle: saline
[16] = endpoint: mean survival time, dose: 200.0 mg/kg/injection, schedule: Q01DX009 (ip), vehicle: saline
[17] = endpoint: mean survival time, dose: 400.0 mg/kg/injection, schedule: Q01DX009 (ip), vehicle: saline
[18] = endpoint: mean survival time, dose: 100.0 mg/kg/injection, schedule: Q04DX002 (ip), vehicle: Klucel (hydroxypropylcellulose) (HPC)
[19] = endpoint: mean survival time, dose: 200.0 mg/kg/injection, schedule: Q04DX002 (ip), vehicle: Klucel (hydroxypropylcellulose) (HPC)
[20] = endpoint: mean survival time, dose: 400.0 mg/kg/injection, schedule: Q04DX002 (ip), vehicle: Klucel (hydroxypropylcellulose) (HPC)
[21] = endpoint: mean survival time, dose: 100.0 mg/kg/injection, schedule: Q01DX009 (ip), vehicle: saline with Tween-80
[22] = endpoint: mean survival time, dose: 100.0 mg/kg/injection, schedule: Q01DX001 (ip), vehicle: Klucel (hydroxypropylcellulose) (HPC)
[23] = endpoint: mean survival time, dose: 200.0 mg/kg/injection, schedule: Q01DX001 (ip), vehicle: Klucel (hydroxypropylcellulose) (HPC)
[24] = endpoint: mean survival time, dose: 400.0 mg/kg/injection, schedule: Q01DX001 (ip), vehicle: Klucel (hydroxypropylcellulose) (HPC)

Measured: T/C

CNC(=S)N/N=C(\C=N\NC(=S)NC)c1ccccc1
inactive: endpoint: mean survival time, dose: 50.0 micrograms/kg/injection, schedule: Q01DX009 (ip), vehicle: carboxymethylcellulose (CMC) 88 % of control

Oc1ccc2ccccc2c1C=NCC1CCC(CN=Cc2c(O)ccc3ccccc23)CC1 (stereo not drawn)
inactive: [1] 91 % of control | [2] 95 % of control | [3] 88 % of control

COc1ccc(C23OC2Oc2cc(OC4CCCCO4)ccc2C3=O)cc1 (stereo not drawn)
inactive: endpoint: mean survival time, dose: 50.0 mg/kg/injection, schedule: Q01DX001 (sc), vehicle: steriod suspending solution 103 % of control | endpoint: mean survival time, dose: 100.0 mg/kg/injection, schedule: Q01DX001 (sc), vehicle: steriod suspending solution 108 % of control | endpoint: mean survival time, dose: 200.0 mg/kg/injection, schedule: Q01DX001 (sc), vehicle: steriod suspending solution 106 % of control | endpoint: mean survival time, dose: 400.0 mg/kg/injection, schedule: Q01DX001 (sc), vehicle: steriod suspending solution 103 % of control

CC(=O)c1c(C)c([N+](=O)[O-])c(C(C)(C)C)c([N+](=O)[O-])c1C
inactive: [4] 100 % of control | [5] 97 % of control | [6] 96 % of control

C[Si](C)Cc1cccc(F)c1
inactive: [7] 105 % of control | [8] 105 % of control | [9] 100 % of control

CC(=O)N/N=C/C=C/c1ccccc1
inactive: [10] 95 % of control | [11] 103 % of control

CCSC(SCC)C(O)C(O)C(O)C(O)CO (stereo not drawn)
inactive: [4] 101 % of control and 98 % of control | [7] 101 % of control and 92 % of control | [12] 101 % of control | [5] 106 % of control and 97 % of control | [8] 101 % of control and 95 % of control | [13] 93 % of control | [6] 114 % of control and 97 % of control | [9] 101 % of control and 92 % of control | [14] 92 % of control

COc1ccc(C(=O)c2cc(OC)c(OC)c(OC)c2)cc1OC
inactive: endpoint: mean survival time, dose: 50.0 mg/kg/injection, schedule: Q04DX003 (ip), vehicle: saline 98 % of control | endpoint: mean survival time, dose: 100.0 mg/kg/injection, schedule: Q01DX001 (ip), vehicle: carboxymethylcellulose (CMC) 102 % of control | [15] 108 % of control | [12] 100 % of control | endpoint: mean survival time, dose: 200.0 mg/kg/injection, schedule: Q01DX001 (ip), vehicle: carboxymethylcellulose (CMC) 103 % of control | [16] 112 % of control | [13] 104 % of control | endpoint: mean survival time, dose: 400.0 mg/kg/injection, schedule: Q01DX001 (ip), vehicle: carboxymethylcellulose (CMC) 103 % of control | [17] 101 % of control | [14] 96 % of control

COc1ccc(OC)c(C(=O)CSC(=S)OC(C)C)c1
inactive: [18] 96 % of control | [19] 92 % of control | [20] 96 % of control

CC(C)(O)C(=O)NC/C=C/c1ccccc1
inactive: [10] 93 % of control | [11] 93 % of control | [21] 93 % of control

CCN(CCOC(=O)Nc1cccc(C(C)=O)c1)c1ccccc1
inactive: [4] 108 % of control | [5] 104 % of control | [6] 106 % of control

O=c1n(-c2ccccc2)c(=O)n(-c2ccccc2)c(=O)n1-c1ccccc1
inactive: [1] 107 % of control | [7] 89 % of control | [2] 102 % of control | [8] 94 % of control | [3] 115 % of control | [9] 104 % of control

COc1cccc(/C=N\NC(=O)CNC(=O)Nc2ccc(Cl)c(Cl)c2)c1OC
inactive: [11] 93 % of control | [21] 93 % of control | endpoint: mean survival time, dose: 200.0 mg/kg/injection, schedule: Q01DX009 (ip), vehicle: saline with Tween-80 86 % of control

O=C(NCCBr)Nc1ccccc1C(F)(F)F
inactive: [4] 103 % of control | [7] 112 % of control | [5] 105 % of control | [8] 103 % of control | [6] 107 % of control | [9] 93 % of control

Cc1ccc2c(c1)P(=O)(O)c1cc(Cl)ccc1O2
inactive: endpoint: mean survival time, dose: 50.0 mg/kg/injection, schedule: Q01DX009 (ip), vehicle: saline 98 % of control | [15] 100 % of control | [16] 102 % of control | [17] 98 % of control | endpoint: median survival time, dose: 64.8 mg/kg/injection, schedule: Q01DX009 (ip), vehicle: water 109 % of control | endpoint: median survival time, dose: 108.0 mg/kg/injection, schedule: Q01DX009 (ip), vehicle: water 107 % of control | endpoint: median survival time, dose: 130.0 mg/kg/injection, schedule: Q04DX003 (ip), vehicle: water 103 % of control | endpoint: median survival time, dose: 180.0 mg/kg/injection, schedule: Q01DX009 (ip), vehicle: water 109 % of control | endpoint: median survival time, dose: 216.0 mg/kg/injection, schedule: Q04DX003 (ip), vehicle: water 102 % of control | endpoint: median survival time, dose: 300.0 mg/kg/injection, schedule: Q01DX009 (ip), vehicle: water 112 % of control | endpoint: median survival time, dose: 360.0 mg/kg/injection, schedule: Q04DX003 (ip), vehicle: water 103 % of control

O=S(=O)(CS(=O)(=O)c1ccccc1)c1ccccc1
inactive: endpoint: mean survival time, dose: 75.0 mg/kg/injection, schedule: Q01DX009 (ip), vehicle: Klucel (hydroxypropylcellulose) (HPC) 102 % of control | endpoint: mean survival time, dose: 150.0 mg/kg/injection, schedule: Q01DX009 (ip), vehicle: Klucel (hydroxypropylcellulose) (HPC) 98 % of control | endpoint: mean survival time, dose: 300.0 mg/kg/injection, schedule: Q01DX009 (ip), vehicle: Klucel (hydroxypropylcellulose) (HPC) 95 % of control

Nc1c(OCCc2ccccc2)cccc1C(=O)O
inactive: [22] 97 % of control | [23] 96 % of control | [24] 93 % of control

Cc1cc(=S)[nH]c2ccccc12
inactive: endpoint: mean survival time, dose: 75.0 mg/kg/injection, schedule: Q04DX003 (ip), vehicle: saline 100 % of control | endpoint: mean survival time, dose: 150.0 mg/kg/injection, schedule: Q04DX003 (ip), vehicle: saline 100 % of control | endpoint: mean survival time, dose: 300.0 mg/kg/injection, schedule: Q04DX003 (ip), vehicle: saline 100 % of control

COc1ccc(C(C)=O)cc1
inactive: endpoint: mean survival time, dose: 100.0 mg/kg/injection, schedule: Q04DX002 (ip), vehicle: saline + alcohol 92 % of control | endpoint: mean survival time, dose: 200.0 mg/kg/injection, schedule: Q04DX002 (ip), vehicle: saline + alcohol 96 % of control | endpoint: mean survival time, dose: 400.0 mg/kg/injection, schedule: Q04DX002 (ip), vehicle: saline + alcohol 92 % of control

O=C(CN1C2CCC1CC(O)C2)NCC1C(c2ccccc2)C1c1ccccc1 (stereo not drawn)
inactive: endpoint: mean survival time, dose: 25.0 mg/kg/injection, schedule: Q04DX002 (ip), vehicle: Klucel (hydroxypropylcellulose) (HPC) 111 % of control | endpoint: mean survival time, dose: 50.0 mg/kg/injection, schedule: Q04DX002 (ip), vehicle: Klucel (hydroxypropylcellulose) (HPC) 95 % of control | [18] 109 % of control

ClCc1cc(OCc2ccccc2)ccc1OCc1ccccc1
inactive: endpoint: mean survival time, dose: 75.0 mg/kg/injection, schedule: Q04DX003 (ip), vehicle: Klucel (hydroxypropylcellulose) (HPC) 86 % of control | [22] 101 % of control | endpoint: mean survival time, dose: 150.0 mg/kg/injection, schedule: Q04DX003 (ip), vehicle: Klucel (hydroxypropylcellulose) (HPC) 91 % of control | [23] 94 % of control | endpoint: mean survival time, dose: 300.0 mg/kg/injection, schedule: Q04DX003 (ip), vehicle: Klucel (hydroxypropylcellulose) (HPC) 86 % of control | [24] 97 % of control

S=P(NCc1ccccc1)(NCc1ccccc1)NCc1ccccc1
inactive: endpoint: mean survival time, dose: 100.0 mg/kg/injection, schedule: Q04DX002 (ip), vehicle: gum acacia 97 % of control | endpoint: mean survival time, dose: 200.0 mg/kg/injection, schedule: Q04DX002 (ip), vehicle: gum acacia 97 % of control | endpoint: mean survival time, dose: 400.0 mg/kg/injection, schedule: Q04DX002 (ip), vehicle: gum acacia 94 % of control

CC1C(=O)C(=O)C(CCc2ccccc2)C1=O (stereo not drawn)
inactive: endpoint: mean survival time, dose: 100.0 mg/kg/injection, schedule: Q04DX003 (ip), vehicle: saline with Tween-80 97 % of control | endpoint: mean survival time, dose: 200.0 mg/kg/injection, schedule: Q04DX003 (ip), vehicle: saline with Tween-80 97 % of control | endpoint: mean survival time, dose: 400.0 mg/kg/injection, schedule: Q04DX003 (ip), vehicle: saline with Tween-80 97 % of control

CCCCCCCCCCCC(=O)Nc1ccc(N(C)C(C)=O)cc1
inactive: [4] 90 % of control | [18] 89 % of control | [5] 95 % of control | [19] 100 % of control | [6] 97 % of control | [20] 100 % of control
